# Measurements: patent US11865103B2, “Methods of treating disorders associated with glycosylation defective proteins” (CASE WESTERN RESERVE UNIVERSITY, priority 2016, dated 2024)
# System: hCLRN1^N48K-YFP; clrn1^KO/KO larvae
# Assay: Survival rate of hCLRN1^N48K-YFP; clrn1^KO/KO zebrafish larvae under ART treatment, 6.5 to 27 dpf
# Type: in vivo
# Settings: for Survival rate and swimming behavior beyond 25 dpf: untreated 5%
# Protocol: The startle response and swimming behavior of the clrn1^+/+ larvae, clrn1^KO/KO larvae, hCLRN1-YFP; clrn1^KO/KO larvae and hCLRN1^N48K-YFP; clrn1^KO/KO larvae were recorded at 6.5dpf, 10.5dpf, 16.5dpf and 27dpf as described earlier (Table-1). The extracellular microphonics potentials were recorded at 6dpf to confirm the hair cell function in these humanized zebrafish models for hCLRN1 (hCLRN1-YFP; clrn1^KO/KO larvae larvae) and USH3-CLRN1^N48Kmutant (hCLRN1^N48K-YFP; clrn1^KO/KO larvae) as described earlier (FIG. 5).
# To verify the degree of overall rescue in swimming behavior (hair cell function) and prolongation of life span by ART treatment in the hCLRN1^N48K-YFP; clrn1^KO/KO zebrafish larvae, survival rate, swimming behavior and startle response were observed longitudinally from 6.5 to 27 dpf (Table 1). For this rescue experiment, we followed two regimens of ART treatment. Regimen I, 35 larvae from hCLRN1^N48K-YFP; clrn1^KO/KO genotype were treated with 0.4 uM ART from 3 to 7 dpf (5 days of treatment during inner ear development and hair cell maturation). Regimen II, 20 larvae from hCLRN1^N48K-YFP; clrn1^KO/KO genotype were treated with 0.4 uM ART from 3 to 12 dpf (10 days of treatment overlapping development and post-development of inner ear anatomy and hair cell maturation). At 6.5 dpf, the swimming behavior and startle response of hCLRN1^N48K-YFP; clrn1^KO/KO larvae from ART treatment regimen I and II, were indistinguishable from that of clrn1^+/+ and hCLRN1-YFP; clrn1^KO/KO larvae. About 75% (Regimen I+II: 41 larvae) of ART treated hCLRN1^N48K-YFP; clrn1^KO/KO larvae had clrn1^+/+ equivalent startle response. In regimen I and II, the survival rate and swimming behavior of hCLRN1^N48K-YFP; clrn1^KO/KO larvae beyond 25 dpf shown significant improvement from 5% in untreated hCLRN1^N48K-YFP; clrn1^KO/KO larvae to 40% (n=14) and 45% (n=[…]), respectively. […] Overall, result confirms that ART is not only able to correct the trafficking defect of hCLRN1^N48K protein, but also able to help in normal hair cell functioning of hair cells from hCLRN1^N48K-YFP; clrn1^KO/KO zebrafish and delay onset progressive loss of hair cell function.
# [1] = Regimen I: 0.4 μM ART from 3 to 7 dpf, 6.5 dpf
# [2] = Regimen I: 0.4 μM ART from 3 to 7 dpf, 10.5 dpf
# [3] = Regimen I: 0.4 μM ART from 3 to 7 dpf, 15 dpf
# [4] = Regimen I: 0.4 μM ART from 3 to 7 dpf, 16.5 dpf
# [5] = Regimen I: 0.4 μM ART from 3 to 7 dpf, 27 dpf
# [6] = Regimen II: 0.4 μM ART from 3 to 12 dpf, 6.5 dpf
# [7] = Regimen II: 0.4 μM ART from 3 to 12 dpf, 10.5 dpf
# [8] = Regimen II: 0.4 μM ART from 3 to 12 dpf, 15 dpf
# [9] = Regimen II: 0.4 μM ART from 3 to 12 dpf, 16.5 dpf
# [10] = Regimen II: 0.4 μM ART from 3 to 12 dpf, 27 dpf
smiles,measurement,setting,value
"C[C@@H]1CC[C@H]2[C@@H](C)C(=O)O[C@@H]3O[C@@]4(C)CC[C@@H]1[C@]32OO4 [ART, Artemisinin]",Survival rate,[1],(100%)
same,"Survival rate, number of surviving larvae",[1],35
same,Survival rate,[2],(85.71%)
same,"Survival rate, number of surviving larvae",[2],30
same,Survival rate,[3],(68.57%)
same,"Survival rate, number of surviving larvae",[3],24
same,Survival rate,[4],(54.29%)
same,"Survival rate, number of surviving larvae",[4],19
same,Survival rate,[5],(40%)
same,"Survival rate, number of surviving larvae",[5],14
same,Survival rate and swimming behavior beyond 25 dpf,Regimen I: 0.4 uM ART from 3 to 7 dpf,40%
same,Survival rate,[6],(100%)
same,"Survival rate, number of surviving larvae",[6],20
same,Survival rate,[7],(90%)
same,"Survival rate, number of surviving larvae",[7],18
same,Survival rate,[8],(65%)
same,"Survival rate, number of surviving larvae",[8],13
same,Survival rate,[9],(65%)
same,"Survival rate, number of surviving larvae",[9],13
same,Survival rate,[10],(45%)
same,"Survival rate, number of surviving larvae",[10],9
same,Survival rate and swimming behavior beyond 25 dpf,Regimen II: 0.4 uM ART from 3 to 12 dpf,45%
